Test results as given in ChEMBL document CHEMBL4665837, “Soluble guanylate cyclase stimulators for the treatment of hypertension: Discovery of MK-2947” (Bioorg Med Chem Lett, 2020).

Legend:
[1] = Oral bioavailability in rat at 2 mg/kg; format: ADME, organism-based; details: in vivo
[2] = Half life in rat at 1 mg/kg, iv and 2 mg/kg, po; format: ADME, organism-based; details: in vivo
[3] = Total Plasma clearance in Sprauge-Dawley rat; format: ADME; details: Sprague-Dawley
[4] = AUCt/dose in Sprauge-Dawley rat; format: ADME; details: in vivo
[5] = Half life in Sprauge-Dawley rat; format: ADME; details: Sprague-Dawley, in vivo
[6] = Oral bioavailability in Sprauge-Dawley rat; format: ADME, organism-based; details: Sprague-Dawley, in vivo
[7] = Drug level in SRH rat plasma a 1 mg/kg , po measured after 4 hrs; format: ADME, organism-based
[8] = Drug level in SRH rat plasma at 3 mg/kg , po measured after 4 hrs; format: ADME, organism-based
[9] = Drug level in SRH rat plasma at 0.3 mg/kg , po measured after 4 hrs; format: ADME, organism-based
[10] = Oral bioavailability in monkey at 2 mg/kg, po; format: ADME, organism-based, Macaca mulatta; details: rhesus monkey, in vivo
[11] = Half life in monkey at 0.5 mg/kg, iv and 2 mg/kg, po; format: ADME, organism-based, Macaca mulatta; details: rhesus monkey, in vivo
[12] = Clearance in monkey at 0.5 mg/kg, iv and 2 mg/kg, po; format: ADME, organism-based, Macaca mulatta; details: rhesus monkey, in vivo
[13] = Oral bioavailability in dog at 10 mg/kg; format: ADME, organism-based, Canis lupus familiaris; details: in vivo
[14] = Half life in dog at 1 mg/kg, iv and 10 mg/kg, po; format: ADME, organism-based, Canis lupus familiaris; details: in vivo
[15] = Clearance in dog at 1 mg/kg, iv and 10 mg/kg, po; format: ADME, organism-based, Canis lupus familiaris; details: in vivo
[16] = Half life in rat at 2 mg/kg, po; format: ADME, organism-based; details: in vivo
[17] = Clearance in rat at 1 mg/kg, iv and 2 mg/kg, po; format: ADME, organism-based; details: in vivo

With `COC(=O)N(C)c1c(N)nc(-c2nc(Cc3ccccc3F)n3ncccc23)nc1N` as the compound, how does the bioavailability [1] read?
Its bioavailability is 4%.

And the half-life [2]?
The half-life was 0.6 h.

Which results are given for `COC(=O)N(C)c1c(N)nc(-n2nc(Cc3c(F)ccc(F)c3F)c3ccccc32)nc1N`?
clearance [3]: 1.6 mL/min/kg; AUCt/dose [4]: 15.3 µM·kg·h/mg; half-life [5]: 2.2 h; bioavailability [6]: 68%

Which bioavailability [1] does the source give for `COC(=O)N(C)c1c(N)nc(-n2nc(Cc3ccccc3F)c3ccccc32)nc1N` here?
The bioavailability was 32%.

And the half-life [2]?
Its half-life is 0.9 h.

Which clearance [3] does the source give for `COC(=O)N(C)c1c(N)nc(-n2nc(Cc3c(F)ccc(F)c3F)c3cc(Cl)ccc32)nc1N` here?
Its clearance is 0.9 mL/min/kg.

And the AUCt/dose [4]?
The AUCt/dose was 18 µM·kg·h/mg.

What about the half-life [5] of the same compound?
Its half-life is 3.6 h.

And the bioavailability [6]?
Its bioavailability is 51%.

For `COC(=O)N(C)c1c(N)nc(-c2nc(Cc3ccccc3F)n3ccccc23)nc1N`, which bioavailability [1] is on record?
The bioavailability was 15%.

What about the half-life [2] of the same compound?
The half-life was 0.9 h.

With `COC(=O)Nc1c(N)nc(-n2nc(Cc3c(F)ccc(F)c3F)c3cc(Cl)ccc32)nc1N` as the compound, how does the AUCt/dose [4] read?
The AUCt/dose was 25.2 µM·kg·h/mg.

And the bioavailability [6]?
The bioavailability was 37%.

Which clearance [3] does the source give for `COC(=O)N(C)c1c(N)nc(-n2nc(Cc3ccccc3F)c3cc(F)ccc32)nc1N` here?
The clearance was 1.4 mL/min/kg.

What about the AUCt/dose [4] of the same compound?
The AUCt/dose was 4.6 µM·kg·h/mg.

What about the half-life [5] of the same compound?
Its half-life is 1.5 h.

And the bioavailability [6]?
The bioavailability was 22%.

Which results are given for `CC1(C)C(=O)Nc2nc(-n3nc(CCC(F)(F)F)c4cc(Cl)ccc43)nc(N)c21`?
concentration at 4 h [7]: 145 nM; concentration at 4 h [8]: 392 nM; concentration at 4 h [9]: 36 nM; bioavailability [10]: 63%; half-life [11]: 1.4 h; clearance [12]: 34 mL/min/kg; bioavailability [13]: 21%; half-life [14]: 1.3 h; clearance [15]: 39 mL/min/kg; half-life [16]: 2.6 h; clearance [17]: 29 mL/min/kg; bioavailability [1]: 80%
